# Patent publication US8637525B2, “Compounds for the reduction of beta-amyloid production” (Bristol-Myers Squibb Company, priority 2009, dated 2014)
# Where a name gives a salt, the structure may show the parent alone. Read-outs that look alike come from different tables or passages of the source.
# Tested on: Aβ1-42 production
# Experiment: Cellular assay for inhibition of Aβ1-42 production (H4 APP751 SWE clone 8.20)
# Type: cell-based
# Settings: H4 APP751 SWE clone 8.20 cells, 19 h incubation
# How it was run: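 19 h cell treatment, 37 °C/5% CO2. Detection of secreted Aβ42 in the cell plate: 565 (Aβ42-specific, Wallac) and 26D6 (N-terminal, APC), overnight 4 °C. IC50 from fitted curves.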
# [1] = class symbols, read-out: Activity Rating (Aβ42 cellular IC50)
# [2] = 19 h, class symbols, read-out: Activity Rating (Aβ42 cellular IC50)
# [3] = 19 h, read-out: Activity Rating (Aβ42 cellular IC50), numeric value
compound,measurement,setting,value
"CCNc1nc(Nc2ccc(-n3cnc(Cl)c3)c(OC)c2)nc2c1CCN(C(=O)OC)C2c1ccc(F)cc1 (single isomer, unassigned) [Example 170A, methyl 2-(4-(4-chloro-1H-imidazol-1-yl)-3-methoxyphenylamino)-4-(ethylamino)-8-(4-fluorophenyl)-5,6-dihydropyrido[3,4-d]pyrimidine-7(8H)-carboxylate]",IC50,[1],1.5 to 9.9 nM
"COc1cc(Nc2nc3c(c(N4CCC(F)(F)CC4)n2)CCC3c2ccc(F)cc2)ccc1-n1cnc(Cl)c1 (racemic) [Example 39, N-(4-(4-chloro-1H-imidazol-1-yl)-3-methoxyphenyl)-4-(4,4-difluoropiperidin-1-yl)-7-(4-fluorophenyl)-6,7-dihydro-5H-cyclopenta[d]pyrimidin-2-amine]",IC50,[2],10 to 100 nM
"CCNc1nc(Nc2ccc(-n3cnc(C)n3)c(F)c2)nc2c1CN(CC(F)(F)F)CC2c1ccccc1 (centres unmarked) [Example 145, N4-ethyl-N2-(3-fluoro-4-(3-methyl-1H-1,2,4-triazol-1-yl)phenyl)-8-phenyl-6-(2,2,2-trifluoroethyl)-5,6,7,8-tetrahydropyrido[4,3-d]pyrimidine-2,4-diamine]",IC50,[2],10 to 100 nM
"CNc1nc(Nc2ccc(-n3cnc(Cl)c3)c(OC)c2)nc2c1COC2c1ccc(F)cc1 (single isomer, unassigned) [Example 79B, N^2-(4-(4-chloro-1H-imidazol-1-yl)-3-methoxyphenyl)-7-(4-fluorophenyl)-N^4-methyl-5,7-dihydrofuro[3,4-d]pyrimidine-2,4-diamine]",IC50,[2],10 to 100 nM
"COc1cc(Nc2nc(N[C@@H](C)C3CC3)c3c(n2)C(c2ccc(F)cc2)CC3)ccc1-n1cnc(Cl)c1 (single isomer, unassigned) [Example 50B]",IC50,[1],10 to 100 nM
"COc1cc(Nc2nc(N[C@H](C)C3CC3)c3c(n2)C(c2ccc(F)cc2)CC3)ccc1-n1cnc(Cl)c1 (mixture of isomers) [Example 49, N2-(4-(4-chloro-1H-imidazol-1-yl)-3-methoxyphenyl)-N4-((R)-1-cyclopropylethyl)-7-(4-fluorophenyl)-6,7-dihydro-5H-cyclopenta[d]pyrimidine-2,4-diamine, 2 TFA]",IC50,"class symbols, TFA, read-out: Activity Rating (Aβ42 cellular IC50)",1.5 to 9.9 nM
"COc1cc(Nc2nc3c(c(N(C)C)n2)COCC3c2ccc(F)cc2)ccc1-n1cnc(Cl)c1 (racemic) [Example 61, N2-(4-(4-chloro-1H-imidazol-1-yl)-3-methoxyphenyl)-8-(4-fluorophenyl)-N4,N4-dimethyl-7,8-dihydro-5H-pyrano[4,3-d]pyrimidine-2,4-diamine]",IC50,[2],10 to 100 nM
"CNc1nc(Nc2ccc3c(ccn3C)c2)nc2c1CCC2c1ccccc1 (centres unmarked) [Example 254, N4-methyl-N2-(1-methyl-1H-indol-5-yl)-7-phenyl-6,7-dihydro-5H-cyclopenta[d]pyrimidine-2,4-diamine]",IC50,[3],1000 nM
"CNc1nc(Nc2ccc(-n3cnc(Cl)c3)c(OC)c2)nc2c1CCC2c1ccc(F)cc1 (single isomer, unassigned) [Example 11A, N^2-(4-(4-Chloro-1H-imidazol-1-yl)-3-methoxyphenyl)-7-(4-fluorophenyl)-N^4-methyl-6,7-dihydro-5H-cyclopenta[d]pyrimidine-2,4-diamine]",IC50,"19 h, read-out: Activity Rating (Aβ42 cellular IC50), numeric value printed without unit",3.8 nM
"CCNc1nc(Nc2ccc(-n3cnc(Cl)c3)c(OC)c2)nc2c1COC2c1ccc(F)cc1 (centres unmarked) [Example 75, N^2-(4-(4-chloro-1H-imidazol-1-yl)-3-methoxyphenyl)-N^4-ethyl-7-(4-fluorophenyl)-5,7-dihydrofuro[3,4-d]pyrimidine-2,4-diamine]",IC50,[2],10 to 100 nM
"CNc1nc(Nc2ccc3[nH]c(C)cc3c2)nc2c1CCC2c1ccccc1 (centres unmarked) [Example 249, N4-methyl-N2-(2-methyl-1H-indol-5-yl)-7-phenyl-6,7-dihydro-5H-cyclopenta[d]pyrimidine-2,4-diamine]",IC50,[2],> 1000 nM
"CNc1nc(Nc2ccc(-n3cnc(C)n3)c(F)c2)nc2c1CN(C)CC2c1ccccc1 (centres unmarked) [Example 149, N2-(3-fluoro-4-(3-methyl-1H-1,2,4-triazol-1-yl)phenyl)-N4,6-dimethyl-8-phenyl-5,6,7,8-tetrahydropyrido[4,3-d]pyrimidine-2,4-diamine]",IC50,[2],10 to 100 nM
COc1cc(Nc2nc3c(c(N4CC[C@@H](F)C4)n2)CCN(S(C)(=O)=O)C3c2ccc(F)cc2)ccc1-n1cnc(Cl)c1 (some centres unmarked) [Example 173],IC50,[3],490 nM
"CNc1nc(Nc2ccc(S(C)(=O)=O)cc2)nc2c1CCC2c1ccccc1 (centres unmarked) [Example 235, N4-methyl-N2-(4-(methylsulfonyl)phenyl)-7-phenyl-6,7-dihydro-5H-cyclopenta[d]pyrimidine-2,4-diamine]",IC50,[2],100 to 1000 nM
"CNc1nc(Nc2ccc(-n3cnc(C)n3)c(OC)c2)nc2c1CC[C@@H]2c1ccccc1OC [Example 266B, (R)—N2-(3-methoxy-4-(3-methyl-1H-1,2,4-triazol-1-yl)phenyl)-7-(2-methoxyphenyl)-N4-methyl-6,7-dihydro-5H-cyclopenta[d]pyrimidine-2,4-diamine]",IC50,[2],10 to 100 nM
"Cc1ccc(C(C)C)cc1Nc1nc(Nc2ccc(C#N)cc2)nc2c1CCC2c1ccccc1 (centres unmarked) [Example 215B, 4-(4-(5-isopropyl-2-methylphenylamino)-7-phenyl-6,7-dihydro-5H-cyclopenta[d]pyrimidin-2-ylamino)benzonitrile]",IC50,[3],173 nM
"CCN(C)c1nc(Nc2ccc(-n3cnc(Cl)c3)c(OC)c2)nc2c1CCCC2c1ccccc1 (single isomer, unassigned) [Example 124B, N^2-(4-(4-Chloro-1H-imidazol-1-yl)-3-methoxyphenyl)-N^4-ethyl-N^4-methyl-8-phenyl-5,6,7,8-tetrahydroquinazoline-2,4-diamine]",IC50,[1],10 to 100 nM
"COc1cc(Nc2nc3c(c(N(C)C)n2)CCCC3c2ccc(F)cc2)ccc1-n1cnc(Cl)c1 (single isomer, unassigned) [Example 127B, N^2-(4-(4-chloro-1H-imidazol-1-yl)-3-methoxyphenyl)-8-(4-fluorophenyl)-N^4,N^4-dimethyl-5,6,7,8-tetrahydroquinazoline-2,4-diamine]",IC50,[1],10 to 100 nM
"C#Cc1ccc(Nc2nc(NC)c3c(n2)C(c2ccc(F)cc2)CC3)cc1 (centres unmarked) [Example 259, N2-(4-ethynylphenyl)-7-(4-fluorophenyl)-N4-methyl-6,7-dihydro-5H-cyclopenta[d]pyrimidine-2,4-diamine]",IC50,[3],940 nM
"COc1cc(Nc2nc3c(c(N4CCC(N(C)C)C4)n2)CCC3c2ccc(F)cc2)ccc1-n1cnc(Cl)c1 (single isomer, unassigned) [Example 29B, N-(4-(4-chloro-1H-imidazol-1-yl)-3-methoxyphenyl)-4-(3-(dimethylamino)pyrrolidin-1-yl)-7-(4-fluorophenyl)-6,7-dihydro-5H-cyclopenta[d]pyrimidin-2-amine]",IC50,[1],10 to 100 nM
"CCNc1nc(Nc2ccc(-n3cnc(Cl)c3)c(OC)c2)nc2c1COCC2c1ccc(F)cc1 (centres unmarked) [Example 56B, N2-(4-(4-chloro-1H-imidazol-1-yl)-3-methoxyphenyl)-N4-ethyl-8-(4-fluorophenyl)-7,8-dihydro-5H-pyrano[4,3-d]pyrimidine-2,4-diamine]",IC50,[1],10 to 100 nM
"CCNc1nc(Nc2ccc(-n3cnc(Cl)c3)c(OC)c2)nc2c1CN(CC(F)F)CC2c1ccccc1 (centres unmarked) [Example 197B, N4-ethyl-N2-(3-methoxy-4-(4-chloro-1H-13-imidazol-1-yl)phenyl)-8-phenyl-6-(2,2-difluoroethyl)-5,6,7,8-tetrahydropyrido[4,3-d]pyrimidine-2,4-diamine]",IC50,[2],1.5 to 9.9 nM
"COc1cc(Nc2nc3c(c(N4CC(F)(F)C4)n2)CNCC3c2ccc(F)cc2)ccc1-n1cnc(Cl)c1 (centres unmarked) [Example 162, N-(4-(4-chloro-1H-imidazol-1-yl)-3-methoxyphenyl)-4-(3,3-difluoroazetidin-1-yl)-8-(4-fluorophenyl)-5,6,7,8-tetrahydropyrido[4,3-d]pyrimidin-2-amine]",IC50,[2],10 to 100 nM
"CCN(C)c1nc(Nc2ccc(-n3cnc(Cl)c3)c(OC)c2)nc2c1COCC2c1ccccc1 (racemic) [Example 52, N^2-(4-(4-Chloro-1H-imidazol-1-yl)-3-methoxyphenyl)-N^4-ethyl-N^4-methyl-8-phenyl-7,8-dihydro-5H-pyrano[4,3-d]pyrimidine-2,4-diamine]",IC50,[2],10 to 100 nM
"COc1cc(Nc2nc3c(c(N4C[C@@H]5C[C@H]4CO5)n2)CCC3c2ccc(F)cc2)ccc1-n1cnc(Cl)c1 (single isomer, unassigned) [Example 18B]",IC50,[2],10 to 100 nM
"COc1cc(Nc2nc3c(c(N4CC[C@@H](F)C4)n2)CCC3c2ccc(F)cc2)ccc1-n1cnc(Cl)c1 (stereo partly drawn) [Example 38B, N-(4-(4-chloro-1H-imidazol-1-yl)-3-methoxyphenyl)-7-(4-fluorophenyl)-4-((R)-3-fluoropyrrolidin-1-yl)-6,7-dihydro-5H-cyclopenta[d]pyrimidin-2-amine]",IC50,[1],10 to 100 nM
"CCNc1nc(Nc2ccc(-n3ncnc3C)c(F)c2)nc2c1CN(C(=O)C1CC1)CC2c1ccccc1 (centres unmarked) [Example 144, cyclopropyl(4-(ethylamino)-2-(3-fluoro-4-(5-methyl-1H-1,2,4-triazol-1-yl)phenylamino)-8-phenyl-7,8-dihydropyrido[4,3-d]pyrimidin-6(5H)-yl)methanone]",IC50,[2],10 to 100 nM
"CCNc1nc(Nc2ccc(-n3ncnc3C)c(F)c2)nc2c1COCC2c1ccc(C(F)(F)F)cc1 (racemic) [Example 119, N4-ethyl-N2-(3-fluoro-4-(5-methyl-1H-1,2,4-triazol-1-yl)phenyl)-8-(4-(trifluoromethyl)phenyl)-7,8-dihydro-5H-pyrano[4,3-d]pyrimidine-2,4-diamine, TFA]",IC50,[2],10 to 100 nM
"CNc1nc(Nc2ccc(-n3ncnc3C)c(OC)c2)nc2c1CN(C)CC2c1ccc(F)cc1 (centres unmarked) [Example 199A, 8-(4-fluorophenyl)-N2-(3-methoxy-4-(5-methyl-1H-1,2,4-triazol-1-yl)phenyl)-N4,6-dimethyl-5,6,7,8-tetrahydropyrido[4,3-d]pyrimidine-2,4-diamine]",IC50,[1],100 to 1000 nM
